These results are taken from US9828381B2, “Substituted pyrazolopyrimidines and method of use” (AbbVie Deutschland GmbH & Co. KG, priority 2015, dated 2017).

pEC50: −log10 of the molar value.

The target in this assay is GABA-B receptor (Rattus norvegicus (Rat), UniProt O88871+Q9Z0U4). Description: [35S]GTPgS binding assay, rat cortical membranes, in presence of EC25 GABA. The assay is classed as biochemical. The conditions noted are these: rat brain cortex membranes; in presence of 1 μM GABA (EC25); positive allosteric modulation. On the procedure: Preparation of Rat Brain Membranes for Native Receptor Assays
Chain of GABA-B receptor (Q9Z0U4 17-960): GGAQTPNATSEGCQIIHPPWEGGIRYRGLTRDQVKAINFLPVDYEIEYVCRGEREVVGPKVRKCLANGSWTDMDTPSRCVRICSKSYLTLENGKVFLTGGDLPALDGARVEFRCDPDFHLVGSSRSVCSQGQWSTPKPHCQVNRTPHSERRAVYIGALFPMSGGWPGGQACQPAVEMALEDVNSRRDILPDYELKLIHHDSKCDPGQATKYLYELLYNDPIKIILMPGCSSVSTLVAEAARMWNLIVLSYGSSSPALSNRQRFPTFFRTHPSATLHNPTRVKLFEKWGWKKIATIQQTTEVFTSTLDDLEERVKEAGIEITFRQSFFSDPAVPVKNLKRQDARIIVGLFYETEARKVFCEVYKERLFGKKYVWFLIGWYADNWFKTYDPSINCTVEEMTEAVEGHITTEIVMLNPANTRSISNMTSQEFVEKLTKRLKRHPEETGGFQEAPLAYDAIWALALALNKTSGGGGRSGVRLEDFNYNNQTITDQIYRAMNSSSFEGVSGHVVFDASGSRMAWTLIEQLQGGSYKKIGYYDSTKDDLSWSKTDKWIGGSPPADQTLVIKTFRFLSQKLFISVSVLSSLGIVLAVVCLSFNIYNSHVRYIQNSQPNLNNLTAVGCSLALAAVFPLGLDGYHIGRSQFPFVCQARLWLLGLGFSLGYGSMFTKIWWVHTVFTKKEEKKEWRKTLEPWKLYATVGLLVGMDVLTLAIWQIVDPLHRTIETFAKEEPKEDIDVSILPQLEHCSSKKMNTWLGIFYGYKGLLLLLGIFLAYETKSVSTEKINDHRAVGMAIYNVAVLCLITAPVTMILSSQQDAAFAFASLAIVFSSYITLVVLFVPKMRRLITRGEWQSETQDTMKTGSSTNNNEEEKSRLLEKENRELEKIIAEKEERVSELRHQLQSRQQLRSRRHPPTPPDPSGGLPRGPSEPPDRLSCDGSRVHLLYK
Chain of GABA-B receptor (O88871 41-940): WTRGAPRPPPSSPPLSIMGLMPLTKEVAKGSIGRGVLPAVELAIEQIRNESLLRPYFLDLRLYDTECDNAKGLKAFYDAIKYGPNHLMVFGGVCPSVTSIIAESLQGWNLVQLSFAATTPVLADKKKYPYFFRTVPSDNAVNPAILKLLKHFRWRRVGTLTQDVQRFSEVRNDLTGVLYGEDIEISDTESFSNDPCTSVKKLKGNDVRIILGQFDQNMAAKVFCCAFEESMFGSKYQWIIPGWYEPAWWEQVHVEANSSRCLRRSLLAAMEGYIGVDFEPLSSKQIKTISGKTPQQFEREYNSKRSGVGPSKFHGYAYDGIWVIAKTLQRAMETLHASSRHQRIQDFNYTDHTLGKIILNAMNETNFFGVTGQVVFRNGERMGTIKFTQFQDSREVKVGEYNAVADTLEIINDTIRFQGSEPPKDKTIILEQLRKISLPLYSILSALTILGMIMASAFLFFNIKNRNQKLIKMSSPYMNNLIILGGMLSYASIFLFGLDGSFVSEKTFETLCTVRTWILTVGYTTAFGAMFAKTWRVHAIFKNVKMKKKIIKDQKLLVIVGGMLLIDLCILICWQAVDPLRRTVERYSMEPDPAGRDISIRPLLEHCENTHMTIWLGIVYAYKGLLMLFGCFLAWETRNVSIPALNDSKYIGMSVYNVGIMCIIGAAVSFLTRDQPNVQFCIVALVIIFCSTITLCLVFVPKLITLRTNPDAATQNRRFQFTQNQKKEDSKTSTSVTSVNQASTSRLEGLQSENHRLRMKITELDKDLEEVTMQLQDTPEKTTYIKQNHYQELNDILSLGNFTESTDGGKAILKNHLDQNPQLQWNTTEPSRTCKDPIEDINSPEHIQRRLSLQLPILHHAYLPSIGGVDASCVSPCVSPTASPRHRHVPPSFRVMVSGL
Membranes from rat brain cortex were prepared as described in detail by Olpe et al. and stored at concentrations of 1.66 mg/mL protein at −80° C. until required. (Olpe, H.-R, et al. Eur J Pharmacol 1990; 187: 27-38).
[^35S] GTPgS Binding Assay
The composition of the assay mixtures [in a final volume of 200 μL in 96-well U-bottom plates (Greiner) was as follows: 50 mM Tris-HCl buffer, pH 7.7, 10 mM MgCl2, 0.2 mM EGTA, 2 mM CaCl2, 100 mM NaCl, 20 µM guanosine 5′-diphosphate (Sigma), 0.3 nM [^35S]GTPgS (1250 Ci/mmol (PerkinElmer)), and the test compounds at increasing concentrations (from 10 nM up to […]), […] of rat cortical membranes, and a concentration of […], that has been observed in previous experiments to correspond to the EC25, a concentration that gives 25% of the maximal response of GABA. The samples were incubated at room temperature for 60 minutes on a shaker. The incubation was stopped by rapid vacuum filtration over glass-fiber filter plates (UniFilter-96 well, GF/B membrane plates, PerkinElmer) using a 96-well plate harvester (TOMTEK© Harvester). The UniFilter plate was washed five times with ice-cold wash buffer (50 mM Tris-HCl buffer, pH 7.7, 10 mM MgCl2, and 100 mM NaCl. After filtration the plate was dried for 90 minutes at 55° C. The plates were closed on the bottom with black sealing membranes, and liquid scintillation cocktail (35 μL, Betaplate Scint, PerkinElmer) was added to each well. After sealing the top of the plate, an additional incubation step of 90 minutes at room temperature followed before measuring the plate. The amount of membrane-bound [^35S]GTPgS was measured using a 96-well plate reader (Microbeta®, PerkinElmer). Nonspecific binding was measured in the presence of unlabeled 10 μM of GTPgS (Millipore) and without GABA. Basal binding was measured in the absence of 1 μM GABA, and maximal binding was measured in the presence of GABA using 1 mM GABA concentrations.
Data analysis. The concentration-response curves of compounds of the present disclosure in the presence of EC25 of GABA-B receptor agonist were generated using the GraphPad Prism® program (GraphPad Software, San Diego, Calif.). Data was normalized using basal binding as 0% and maximal binding as 100%. The curves were fitted by nonlinear regression allowing determination of EC50 values from sigmoidal dose-response curves. Each curve was performed using triplicate sample per date point and 10 concentrations.
(In general: GTPγS is a poorly hydrolysed GTP analogue; its binding reports G protein activation.)
Broadly, the pEC50 is −log10 of the EC50, conventionally taken in molar units. As to `Cc1cc(N2CCC[C@H](O)C2)n2nc(C(C)c3ccc(Cl)cc3)cc2n1` (stereo partly drawn) [Example 2-10, (3S)-1-{2-[1-(4-chlorophenyl)ethyl]-5-methylpyrazolo[1,5-a]pyrimidin-7-yl}piperidin-3-ol], the pEC50 is 6.82.
With `Cc1cc(N2CCC[C@@H](O)C2)n2nc(C(C)c3ccc(Cl)cc3)cc2n1` (stereo partly drawn) [Example 2-11, (3R)-1-{2-[1-(4-chlorophenyl)ethyl]-5-methylpyrazolo[1,5-a]pyrimidin-7-yl}piperidin-3-ol] the figure was 7.24; with `Cc1cc(N2CCC2)n2nc(C(C)c3ccc(Cl)cc3)cc2n1` (centres unmarked) [Example 2-12, 7-(azetidin-1-yl)-2-[1-(4-chlorophenyl)ethyl]-5-methylpyrazolo[1,5-a]pyrimidine], 5.55.
With `Cc1cc(N2CC3(CCOCC3)C2)n2nc(C(C)c3ccc(Cl)cc3)cc2n1` (centres unmarked) [Example 2-13, 2-[1-(4-chlorophenyl)ethyl]-5-methyl-7-(7-oxa-2-azaspiro[3.5]non-2-yl)pyrazolo[1,5-a]pyrimidine] the figure was 6.35; with `Cc1cc(NC2CC(F)C2)n2nc(C(C)c3ccc(Cl)cc3)cc2n1` (centres unmarked) [Example 2-14, 2-[1-(4-chlorophenyl)ethyl]-N-(3-fluorocyclobutyl)-5-methylpyrazolo[1,5-a]pyrimidin-7-amine], 6.78.
Consider `CC[C@@H]1CN(c2cc(C)nc3cc(C(C)c4ccc(Cl)cc4)nn23)[C@H]1C(=O)O` (stereo partly drawn) [Example 2-15, (2R,3R)-1-{2-[1-(4-chlorophenyl)ethyl]-5-methylpyrazolo[1,5-a]pyrimidin-7-yl}-3-ethylazetidine-2-carboxylic acid], for which the pEC50 was 5.41.
Take `Cc1cc(NCC2CC(F)(F)C2)n2nc(C(C)c3ccc(Cl)cc3)cc2n1` (centres unmarked) [Example 2-16, 2-[1-(4-chlorophenyl)ethyl]-N-[(3,3-difluorocyclobutyl)methyl]-5-methylpyrazolo[1,5-a]pyrimidin-7-amine]: the pEC50 was 6.23.
With `CC(=O)N[C@H]1CCN(c2cc(C)nc3cc(C(C)c4ccc(Cl)cc4)nn23)C1` (stereo partly drawn) [Example 2-17, N-[(3S)-1-{2-[1-(4-chlorophenyl)ethyl]-5-methylpyrazolo[1,5-a]pyrimidin-7-yl}pyrrolidin-3-yl]acetamide] the figure was 5.66; with `Cc1cc(N2CCC3(CCC3O)C2)n2nc(C(C)c3ccc(Cl)cc3)cc2n1` (centres unmarked) [Example 2-20, 6-{2-[1-(4-chlorophenyl)ethyl]-5-methylpyrazolo[1,5-a]pyrimidin-7-yl}-6-azaspiro[3.4]octan-1-ol], 7.03.
With `Cc1cc(NC2CC(F)(F)C2)n2nc(C(C)c3ccc(Cl)cc3)cc2n1` (centres unmarked) [Example 2-21, 2-(1-(4-chlorophenyl)ethyl)-N-(3,3-difluorocyclobutyl)-5-methylpyrazolo[1,5-a]pyrimidin-7-amine] the figure was 6.40.
`CC[C@@H]1CCCCN1c1cc(C)nc2cc(C(C)c3ccc(Cl)cc3)nn12` (stereo partly drawn) [Example 2-22, 2-[1-(4-chlorophenyl)ethyl]-7-[(2R)-2-ethylpiperidin-1-yl]-5-methylpyrazolo[1,5-a]pyrimidine]: the negative-log EC50 (pEC50) was 7.15.
As for `CC(=O)N[C@@H]1CCN(c2cc(C)nc3cc(C(C)c4ccc(Cl)cc4)nn23)C1` (stereo partly drawn) [Example 2-23, N-[(3R)-1-{2-[1-(4-chlorophenyl)ethyl]-5-methylpyrazolo[1,5-a]pyrimidin-7-yl}pyrrolidin-3-yl]acetamide], the negative-log EC50 (pEC50) is 5.56.
With `CCC(c1ccc(Cl)cc1)c1cc2nc(C)cc(N3CCCCC3CCO)n2n1` (centres unmarked) [Example 3-1, 2-(1-{2-[1-(4-chlorophenyl)propyl]-5-methylpyrazolo[1,5-a]pyrimidin-7-yl}piperidin-2-yl)ethanol] the figure was 8.10; with `CCC(c1ccc(Cl)cc1)c1cc2nc(C)cc(N3CCCC(F)(F)C3)n2n1` (centres unmarked) [Example 3-2, 2-[1-(4-chlorophenyl)propyl]-7-(3,3-difluoropiperidin-1-yl)-5-methylpyrazolo[1,5-a]pyrimidine], 7.85.
